In PMC9964390, “Design, Synthesis and Phenotypic Profiling of Simplified Gedatolisib Analogues” (Pharmaceuticals, 2023):

How the values were obtained:
[1] = test system: PC-3, MCF7, K562, CCRF-CEM and MOLT-4; test: MTT single-concentration cytotoxicity screening; format: cell-based, human; conditions: single concentration 30 μM; reduction in cell viability ≥ 50% selected for CC50
Procedure: In a first approach, the assay was validated with two standard drugs: gedatolisib and GSK-1059615.
After understanding the response profile of the selected cell lines to the treatment with gedatolisib and GSK-1059615, we investigated the cytotoxic activity of compounds 5a-f at a single concentration (30 μM). […] During the experiments, compounds 5a (LASSBio-2250), 5b (LASSBio-2251) and 9 (CAS-942789959) were insoluble and precipitated on the culture medium. Therefore, they were evaluated also at the screening concentration of 1 μM.
Cell viability was assessed by the MTT assay. The lines selected for this study were plated according to their respective densities, which ranged from 3 × 10^4 to 4 × 10^4 cells per well. Subsequently, they were treated with test compounds at different concentrations (0.00003 μM to 150 μM), gedatolisib and GSK-1059615.
After incubation, the plates are centrifuged at 440× g for 10 min. Then, 110 μL of the supernatant was withdrawn and each well received 10μL of the MTT solution. The plate was again incubated in an oven at 37 °C and 5% CO2 for 3 to 4 h. At the end of the incubation time, 100 μL of SDS-HCL detergent was added to solubilize the formazan crystals. The plate was shaken on an automatic overnight shaker and then read at a wavelength of 595 nm on the Molecular Devices Spectramax M5 plate reader.

[2] = test system: PI3K activation and phosphorylation in MOLT-4 cell line; test: Muse PI3K Activation Dual Detection Kit; format: cell-based, human; conditions: MOLT-4, concentration 10 times lower than its CC50
Procedure: The methodology evaluates the activation and phosphorylation of PI3K and was performed from the labelling with the Guava Muse Luminex® PI3K Activation Dual Detection Kit (catalog n^o. MCH200103, Luminex) containing the anti-AKT/PKB-PECy5 antibody to measure total PI3K and the anti-phospho-AKT (Ser473)-Alexa Fluor® 555 antibody for measurement of activated PI3K.
Following 48 h of incubation in an incubator at 37 °C with 5% CO2, 1 mL of the cell solution was transferred to an Eppendorf tube, washed with PBS and centrifuged at 300× g for 5 min. The supernatant was discarded, and the pellet formed was resuspended in 500 µL of PBS. The samples were again centrifuged at 300× g for 5 min and the supernatant discarded.
Then the cell solutions were resuspended in 200 µL of assay buffer (Part no. CS202124), followed by the addition of 200 µL of fixation buffer (Part n^o. CS202122), ending up with a total volume of 400 µL per sample. The samples were incubated for 5 min on ice and centrifuged at 300× g for 5 min and the supernatant discarded.
Cells were permeabilized by adding 200 µL of ice-cold permeabilization buffer (Part n^o. CS202125) and then incubated on ice for 5 min and centrifuged at 300× g for 5 min, and the supernatant was discarded. The formed pellets were resuspended in 450 µL of assay buffer and vortexed at medium speed. In total, 90 µL of the solution from each sample was aliquoted into a new tube, and 10 µL of the cocktail solution containing Anti-phospho-Akt (Ser473), Alexa Fluor®555 and Anti-Akt/PKB, Pecy5 was added. The samples were homogenised and incubated for 30 min in the dark at room temperature.
After the incubation step, 100 µL of assay buffer was added per sample and centrifuged at 300× g for 5 min, and the supernatant was discarded. The formed pellets were resuspended in 200 µL of assay buffer and vortexed, and the samples were read in Guava Muse Luminex®. Data from three independent experiments performed in duplicate were analysed in the Prism6 program to determine the percentage of cells expressing activated and inactivated PI3K.

[3] = Microsomal metabolic stability; format: in vitro ADME; conditions: for Metabolization Rates: 10 μM; for half-life at 10 μM / recovery at 10 µM: rat
Procedure: To investigate the metabolic stability of LASSBio-2252 (5f), the compound was incubated with rat liver microsomes in the presence and in the absence of the NADPH-generating system. Metabolization rate, half-life (t1/2) and apparent intrinsic clearance (Clapp) were calculated.
The metabolic stability of compound 5f (LASSBio-2252) was studied as previously described, and 1 mg/mL of […] rat microsomes was incubated with compound […] (10 μM) in the presence and in the absence of the cofactor (i.e., NADPH generating system). After mixing and incubation at 37 °C in a shaking water bath for 1 h, 500 µL cold acetonitrile containing the internal standard was added to terminate the reaction at different time intervals (0, 15, 30, 45 and 60 min). After mixing and centrifugation at 10,500× g for 15 min at 4 °C, the supernatant was filtered and then was injected into the HPLC system using a mixture of methanol: water acidified (0.1% formic acid, pH 3.0) (50:50, v/v) as the mobile phase at a flow rate of 1.0 mL/min. After analysing the results, the pharmacokinetic parameters were calculated as microsomal half-life (t1/2) and apparent intrinsic clearance (Clapp).

[4] = test system: human peripheral blood mononuclear cells (PBMCs); test: PBMC viability assay (72 h MTT); format: cell-based; conditions: highest concentration studied 50 μM
Procedure: Donor blood was collected and EDTA (ethylenediamine tetraacetic acid) was added to the sterile laminar flow in a 1:20 ratio. In a 15 mL falcon tube, 4.5 mL of Ficoll gradient was added, and then 9 mL of blood was added over the gradient in a 1:2 ratio. The tubes were centrifuged for 40 min at a speed of 750× g with an acceleration of 2 and a brake of 0. The ring of mononuclear cells formed was collected and added to a new tube.
Tubes with PBMCs were centrifuged in an incomplete RPMI medium for 10 min at 580× g with an acceleration of 8 and a brake of 9. The supernatant was discarded, and the cells were resuspended in 1 mL of RPMI medium supplemented with 20% […]. PBMCs were added to 96-well plates at a concentration of 1 × 10^5 cells per well. […]
After incubation, each well received 20 µL of MTT (5 mg/mL), followed by incubation for 4 h in the CO2 oven and centrifugation for 12 min at 1200× g. The supernatant from each well was taken, and 100 µL of isopropyl alcohol was added to solubilize the formazan crystals. The absorbance of the plates was measured at 570 nm in the Flex Station equipment.

[5] = test system: CCRF-CEM (human leukemia cell line); parameters: method as in Gazi and coworkers [14]; conditions: ref Gazi and coworkers [14]; cited from earlier work
[6] = test system: MCF7 (breast cancer cells); parameters: method as in Mallon and coworkers [15]; conditions: ref Mallon and coworkers [15]; cited from earlier work
[7] = rat liver microsomes, NADPH-generating system absent
[8] = rat liver microsomes, NADPH-generating system present

Compound	cytotoxic effect on leukemia cell lines at single concentration [1]	reduction of PI3K-mediated phosphorylation [2] [%]	Elimination Rate Constant (k) [3, 7]	Metabolization Rates [3, 7] [%]	Elimination Rate Constant (k) [3, 8]	Metabolization Rates [3, 8] [%]	half-life at 10 μM ([3]; liver microsomes) [h]	recovery at 10 µM ([3]; liver microsomes, NADPH-generating system absent) [%]	recovery at 10 µM ([3]; liver microsomes, NADPH-generating system present) [%]	half-life at 10 μM [3, 7] [h]	half-life at 10 μM [3, 8] [h]	Emax (reduction of viability of PBMCs) [4] [%]	CC50 [5] [nM]	CC50 [6] [nM]
c1ccc(N2CCN(c3nc(N4CCCNCC4)nc(N4CCOCC4)n3)CC2)cc1 [5f, 4-(4-(1,4-Diazepan-1-yl)-6-(4-phenylpiperazin-1-yl)-1,3,5-triazin-2-yl)morpholine]	cytotoxic effect	79	0.0017	9.09	0.0015	2.90	> 6	100	101	6.79	7.7	–	–	–
CN(C)C1CCN(C(=O)c2ccc(NC(=O)Nc3ccc(-c4nc(N5CCOCC5)nc(N5CCOCC5)n4)cc3)cc2)CC1 [Gedatolisib, gedatolisib]	–	–	–	–	–	–	–	–	–	–	–	33	23	36
